Assay results published in patent US20260201008A1, “SECRETIN-DERIVED GLP1R SELECTIVE AGONISTS” (GUBRA A/S, priority 2023, published 2026).
Where two headings read alike, the source gives them in different places. Numbered stars: 1 amine (or outer) side, 2 acyl side, 3 side chain; on linkers, the order of the positions; unused ones are H or OH. Square brackets hold non-standard residues; d marks the D form. Side chains are listed from the residue outwards. Peptide text beside a SMILES is read from it. * marks the point of attachment. C20 diacid = O=C(O)CCCCCCCCCCCCCCCCCCC(=O)*; γGlu = O=C(O)[C@H](CCC(=O)[*:2])N[*:1]; AEEA = NCCOCCOCC(=O)O; Aib = CC(C)(N)C(=O)O

Legend:
[1] = Turbidity of crude library peptides (absorbance at 600 nm); assay type: physicochemical; settings: Physical stability of peptides
Procedure, shortened: (§1)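 Turbidity is the absorbance at 600 nm, taken before heating. Fibril signal is the mean ThT emission at 480 nm (450 nm excitation), read every 10 min over 72 h at 40° C with 700 rpm shaking between reads. Peptides at 267 μM, pH 4.0 acetate or pH 7.0 phosphate buffer (50 mM), 4 μM ThT final.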

[2] = Fibril formation of crude library peptides (Thioflavin T); assay type: physicochemical; design: key: average ThT fluorescence emission at 480 nm (ex 450 nm), raw units; settings: Physical stability of peptides
Procedure, shortened: as §1

GLP1R = GLP1R (Homo sapiens, UniProt P43220); test: hGLP1R potency, cAMP accumulation in CHO-K1 cells stably overexpressing hGLP1R; assay type: cell-based; design: host or cells: CHO-K1; settings: for Selectivity: SCTR EC50/GLP1R EC50 ratio; for EC50: cAMP accumulation; for SCTR EC50/GLP1R EC50 ratio: cAMP accumulation in CHO-K1 cells
Sequence of GLP1R (P43220 24-463): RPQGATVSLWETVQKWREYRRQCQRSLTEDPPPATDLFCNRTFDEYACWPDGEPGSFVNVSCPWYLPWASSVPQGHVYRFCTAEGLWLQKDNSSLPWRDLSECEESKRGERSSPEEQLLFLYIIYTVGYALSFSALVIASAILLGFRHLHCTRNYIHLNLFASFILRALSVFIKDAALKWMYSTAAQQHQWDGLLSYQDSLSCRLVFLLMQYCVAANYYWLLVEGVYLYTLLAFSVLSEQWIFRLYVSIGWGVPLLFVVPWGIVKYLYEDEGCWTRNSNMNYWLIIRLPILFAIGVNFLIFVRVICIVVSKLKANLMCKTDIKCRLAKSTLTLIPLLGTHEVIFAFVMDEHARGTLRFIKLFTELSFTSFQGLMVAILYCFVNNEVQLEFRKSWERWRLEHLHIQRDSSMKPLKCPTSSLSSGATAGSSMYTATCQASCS
Procedure, shortened: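 EC50 derives from variable-slope nonlinear regression of cAMP HTRF signal, with purified peptides tested as 11 three-fold dilutions in duplicate. Assay: hGLP1R-overexpressing CHO-K1 cells, 0.5 mM IBMX, 0.05% casein in DPBS, 30 min room-temperature stimulation, GLP-1(7-36) as reference agonist.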

SCTR = SCTR (Homo sapiens, UniProt P47872); test: hSCTR potency, cAMP accumulation in CHO-K1 cells stably overexpressing hSCTR; assay type: cell-based; design: alternatively Euroscreen ES-712-AF; FAST-0161L; host or cells: CHO-K1; settings: cAMP accumulation
Sequence of SCTR (P47872 23-440): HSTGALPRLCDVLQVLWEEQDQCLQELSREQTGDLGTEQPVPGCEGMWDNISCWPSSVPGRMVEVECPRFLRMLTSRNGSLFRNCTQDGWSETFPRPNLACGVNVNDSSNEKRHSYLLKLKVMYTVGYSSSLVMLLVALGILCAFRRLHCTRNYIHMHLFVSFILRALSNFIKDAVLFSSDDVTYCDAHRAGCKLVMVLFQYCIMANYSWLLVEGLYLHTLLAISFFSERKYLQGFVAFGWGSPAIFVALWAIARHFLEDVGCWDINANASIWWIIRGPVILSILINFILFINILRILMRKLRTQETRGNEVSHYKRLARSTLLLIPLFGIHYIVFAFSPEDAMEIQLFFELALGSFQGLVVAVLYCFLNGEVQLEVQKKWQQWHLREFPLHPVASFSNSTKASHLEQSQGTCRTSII
Procedure, shortened: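 EC50 derived from variable-slope nonlinear regression on 11-point, 3-fold series run in duplicate (crude peptides: 5 points, 10-fold, n=1). Compound stimulation lasted 30 min at room temperature in casein/IBMX-containing DPBS (0.05%, 0.5 mM), 2000 cells/well; cAMP detected by time-resolved FRET after one hour.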

[3] = CHO-K1 cells overexpressing hGLP1R, read-out: pEC50 hGLPR1 (converted)
[4] = CHO-K1 cells overexpressing hSCTR, read-out: pEC50 hSCTR (converted)
[5] = CHO-K1 cells overexpressing hGLP1R, read-out: hGLP1R pEC50 (converted)
[6] = selectivity for hGLP1R over hSCTR
[7] = CHO-K1 cells overexpressing hSCTR, read-out: hSCTR pEC50 (converted)
[8] = CHO-K1 cells stably overexpressing hGLP1R, read-out: hGLP1R potency (pEC50) (converted)
[9] = selectivity ratio, hSCTR vs hGLP1R
[10] = CHO-K1 cells stably overexpressing hSCTR, read-out: hSCTR potency (pEC50) (converted)

CC(C)C[C@H](NC(=O)[C@H](Cc1ccccc1)NC(=O)[C@H](CCCNC(=N)N)NC(=O)[C@H](CCC(N)=O)NC(=O)[C@@H](NC(=O)[C@H](C)NC(=O)[C@H](C)NC(=O)[C@H](CCC(=O)O)NC(=O)[C@H](CCC(=O)O)NC(=O)[C@H](CCCCNC(=O)COCCOCCNC(=O)COCCOCCNC(=O)CC[C@H](NC(=O)CCCCCCCCCCCCCCCCCCC(=O)O)C(=O)O)NC(=O)[C@H](CC(C)C)NC(=O)[C@@H](NC(=O)[C@H](CO)NC(=O)[C@@H](NC(=O)[C@H](CC(=O)O)NC(=O)[C@H](CO)NC(=O)[C@@H](NC(=O)[C@H](Cc1ccccc1)NC(=O)[C@@H](NC(=O)CNC(=O)[C@H](CCC(=O)O)NC(=O)C(C)(C)NC(=O)[C@@H](N)Cc1c[nH]cn1)[C@@H](C)O)[C@@H](C)O)C(C)C)C(C)C)[C@@H](C)O)C(=O)N[C@@H](CCC(=O)O)C(=O)N[C@@H](Cc1c[nH]cn1)C(=O)N[C@@H](CC(C)C)C(=O)N[C@H](C(N)=O)C(C)C [compound 53] (H-H[Aib]EGTFTSDVSVLK([AEEA-AEEA-γGlu-C20 diacid])EEAATQRFLEHLV-NH2)
Turbidity (pH 7) [1]: 0.08 | Fibril formation [2]: 5164 | Selectivity (GLP1R): 10988 | EC50 (GLP1R; [3]): 0.00501 nM | EC50 (SCTR; [4]): 63.1 nM

CC[C@H](C)[C@H](NC(=O)[C@H](Cc1ccccc1)NC(=O)[C@H](CCCNC(=N)N)NC(=O)[C@H](CCC(N)=O)NC(=O)[C@H](CC(C)C)NC(=O)[C@H](C)NC(=O)[C@H](C)NC(=O)CNC(=O)[C@H](CCC(=O)O)NC(=O)[C@H](CC(C)C)NC(=O)[C@H](CC(C)C)NC(=O)C(C)(C)NC(=O)[C@H](CO)NC(=O)[C@@H](NC(=O)[C@H](CC(=O)O)NC(=O)[C@H](CO)NC(=O)[C@@H](NC(=O)[C@H](Cc1ccccc1)NC(=O)[C@@H](NC(=O)CNC(=O)[C@H](CCC(=O)O)NC(=O)C(C)(C)NC(=O)[C@@H](N)Cc1c[nH]cn1)[C@@H](C)O)[C@@H](C)O)[C@@H](C)CC)C(=O)N[C@@H](CCC(N)=O)C(=O)N[C@@H](Cc1c[nH]c2ccccc12)C(=O)N[C@@H](CC(C)C)C(=O)N[C@H](C(N)=O)C(C)C [compound 113] (H-H[Aib]EGTFTSDIS[Aib]LLEGAALQRFIQWLV-NH2)
Turbidity (pH 7) [1]: 0.78 | Fibril formation [2]: 11510 | EC50 (GLP1R; [5]): 0.0501 nM | SCTR EC50/GLP1R EC50 ratio (GLP1R; [6]): 1590 | EC50 (SCTR; [7]): 79.4 nM

CC(C)C[C@H](NC(=O)[C@H](Cc1ccc(O)cc1)NC(=O)[C@H](CO)NC(=O)[C@H](Cc1c[nH]c2ccccc12)NC(=O)[C@H](CC(=O)O)NC(=O)[C@H](CO)NC(=O)[C@@H](NC(=O)[C@H](Cc1ccccc1)NC(=O)[C@@H](NC(=O)CNC(=O)[C@H](CCC(=O)O)NC(=O)C(C)(C)NC(=O)[C@@H](N)Cc1c[nH]cn1)[C@@H](C)O)[C@@H](C)O)C(=O)N[C@@H](CCCCNC(=O)COCCOCCNC(=O)COCCOCCNC(=O)CC[C@H](NC(=O)CCCCCCCCCCCCCCCCCCC(=O)O)C(=O)O)C(=O)N[C@@H](CCC(=O)O)C(=O)N[C@@H](CCC(=O)O)C(=O)N[C@@H](C)C(=O)NC(C)(C)C(=O)N[C@@H](CC(C)C)C(=O)N[C@@H](CCC(N)=O)C(=O)N[C@@H](CCCNC(=N)N)C(=O)N[C@@H](Cc1ccccc1)C(=O)N[C@@H](CC(C)C)C(=O)N[C@@H](CCC(=O)O)C(=O)N[C@@H](Cc1c[nH]cn1)C(=O)N[C@@H](CC(C)C)C(=O)N[C@H](C(N)=O)C(C)C [compound 185] (H-H[Aib]EGTFTSDWSYLK([AEEA-AEEA-γGlu-C20 diacid])EEA[Aib]LQRFLEHLV-NH2)
Turbidity (pH 7) [1]: 0.08 | Fibril formation [2]: 4198 | EC50 (GLP1R; [8]): 0.00631 nM | SCTR EC50/GLP1R EC50 ratio (GLP1R; [9]): 7444 | EC50 (SCTR; [10]): 50.1 nM

CC[C@H](C)[C@H](NC(=O)C(C)(C)NC(=O)[C@H](C)NC(=O)[C@H](CCC(=O)O)NC(=O)[C@H](CCC(=O)O)NC(=O)[C@H](CCCCNC(=O)COCCOCCNC(=O)COCCOCCNC(=O)CC[C@H](NC(=O)CCCCCCCCCCCCCCCCCCC(=O)O)C(=O)O)NC(=O)[C@H](CC(C)C)NC(=O)[C@H](Cc1ccc(O)cc1)NC(=O)[C@H](CO)NC(=O)[C@@H](NC(=O)[C@H](CC(=O)O)NC(=O)[C@H](CO)NC(=O)[C@@H](NC(=O)[C@H](Cc1ccccc1)NC(=O)[C@@H](NC(=O)CNC(=O)[C@H](CCC(=O)O)NC(=O)C(C)(C)NC(=O)[C@@H](N)Cc1c[nH]cn1)[C@@H](C)O)[C@@H](C)O)C(C)C)C(=O)N[C@@H](CCC(N)=O)C(=O)N[C@@H](CCCNC(=N)N)C(=O)N[C@@H](Cc1ccccc1)C(=O)N[C@@H](CC(C)C)C(=O)N[C@@H](CCC(=O)O)C(=O)N[C@@H](Cc1c[nH]cn1)C(=O)N[C@@H](CC(C)C)C(=O)N[C@H](C(N)=O)C(C)C [compound 139] (H-H[Aib]EGTFTSDVSYLK([AEEA-AEEA-γGlu-C20 diacid])EEA[Aib]IQRFLEHLV-NH2)
Turbidity (pH 7) [1]: 0.09 | Fibril formation [2]: 4010 | EC50 (GLP1R; [5]): 0.00631 nM | SCTR EC50/GLP1R EC50 ratio (GLP1R; [6]): 21979 | EC50 (SCTR; [7]): 126 nM

CC(C)C[C@H](NC(=O)[C@H](Cc1ccccc1)NC(=O)[C@H](CCCNC(=N)N)NC(=O)[C@H](CCC(N)=O)NC(=O)[C@H](CCC(N)=O)NC(=O)[C@H](C)NC(=O)[C@H](C)NC(=O)[C@H](CCC(=O)O)NC(=O)[C@H](CCC(=O)O)NC(=O)[C@H](CCCCNC(=O)COCCOCCNC(=O)COCCOCCNC(=O)CC[C@H](NC(=O)CCCCCCCCCCCCCCCCCCC(=O)O)C(=O)O)NC(=O)[C@H](CC(C)C)NC(=O)[C@@H](NC(=O)[C@H](CO)NC(=O)[C@@H](NC(=O)[C@H](CC(=O)O)NC(=O)[C@H](CO)NC(=O)[C@@H](NC(=O)[C@H](Cc1ccccc1)NC(=O)[C@@H](NC(=O)CNC(=O)[C@H](CCC(=O)O)NC(=O)C(C)(C)NC(=O)[C@@H](N)Cc1c[nH]cn1)[C@@H](C)O)[C@@H](C)O)C(C)C)[C@@H](C)O)C(=O)N[C@@H](CCC(=O)O)C(=O)N[C@@H](Cc1c[nH]cn1)C(=O)N[C@@H](CC(C)C)C(=O)N[C@H](C(N)=O)C(C)C [compound 39] (H-H[Aib]EGTFTSDVSTLK([AEEA-AEEA-γGlu-C20 diacid])EEAAQQRFLEHLV-NH2)
Turbidity (pH 7) [1]: 0.08 | Fibril formation [2]: 9592 | Selectivity (GLP1R): 17346 | EC50 (GLP1R; [3]): 0.0158 nM | EC50 (SCTR; [4]): 316 nM

CC(C)C[C@H](NC(=O)[C@H](Cc1ccccc1)NC(=O)[C@H](CCCNC(=N)N)NC(=O)[C@H](CCC(N)=O)NC(=O)[C@H](CCC(=O)O)NC(=O)[C@H](C)NC(=O)[C@H](C)NC(=O)[C@H](Cc1ccccc1)NC(=O)[C@H](CCC(=O)O)NC(=O)[C@H](CCCCNC(=O)COCCOCCNC(=O)COCCOCCNC(=O)CC[C@H](NC(=O)CCCCCCCCCCCCCCCCCCC(=O)O)C(=O)O)NC(=O)[C@H](CC(C)C)NC(=O)[C@H](CCC(=O)O)NC(=O)[C@H](CO)NC(=O)[C@@H](NC(=O)[C@H](CC(=O)O)NC(=O)[C@H](CO)NC(=O)[C@@H](NC(=O)[C@H](Cc1ccccc1)NC(=O)[C@@H](NC(=O)CNC(=O)[C@H](CCC(=O)O)NC(=O)C(C)(C)NC(=O)[C@@H](N)Cc1c[nH]cn1)[C@@H](C)O)[C@@H](C)O)C(C)C)C(=O)N[C@@H](CCC(=O)O)C(=O)N[C@@H](Cc1c[nH]cn1)C(=O)N[C@@H](CC(C)C)C(=O)N[C@H](C(N)=O)C(C)C [compound 31] (H-H[Aib]EGTFTSDVSELK([AEEA-AEEA-γGlu-C20 diacid])EFAAEQRFLEHLV-NH2)
Turbidity (pH 7) [1]: 0.08 | Fibril formation [2]: 10417 | Selectivity (GLP1R): 144477 | EC50 (GLP1R; [3]): 0.0398 nM | EC50 (SCTR; [4]): 6310 nM

CC[C@H](C)[C@H](NC(=O)[C@H](Cc1ccccc1)NC(=O)[C@H](CCCNC(=N)N)NC(=O)[C@H](CCC(N)=O)NC(=O)[C@H](CC(C)C)NC(=O)[C@H](C)NC(=O)[C@H](C)NC(=O)CNC(=O)[C@H](CCC(=O)O)NC(=O)[C@H](CC(C)C)NC(=O)[C@H](CC(C)C)NC(=O)[C@@H](NC(=O)[C@H](CO)NC(=O)[C@H](Cc1ccc(O)cc1)NC(=O)[C@H](CC(=O)O)NC(=O)[C@H](CO)NC(=O)[C@@H](NC(=O)[C@H](Cc1ccccc1)NC(=O)[C@@H](NC(=O)CNC(=O)[C@H](CCC(=O)O)NC(=O)C(C)(C)NC(=O)[C@@H](N)Cc1c[nH]cn1)[C@@H](C)O)[C@@H](C)O)C(C)C)C(=O)N[C@@H](CCC(N)=O)C(=O)N[C@@H](Cc1c[nH]c2ccccc12)C(=O)N[C@@H](CC(C)C)C(=O)N[C@H](C(N)=O)C(C)C [compound 198] (H-H[Aib]EGTFTSDYSVLLEGAALQRFIQWLV-NH2)
Turbidity (pH 7) [1]: 0.33 | Fibril formation [2]: 257659 | EC50 (GLP1R; [8]): 0.0251 nM | SCTR EC50/GLP1R EC50 ratio (GLP1R; [9]): 185 | EC50 (SCTR; [10]): 5.01 nM
